The subject of the assay is GM01896 cells (MPS II dermal fibroblasts). Put plainly: Assay 1: MPS cellular assay, MPS II (heparan sulfate disaccharide biomarkers by LC-MS). It is filed as cell-based, human. As to conditions: Assay 1 for MPS II, heparan sulfate disaccharide biomarkers (I2a4, I2a6, I2S0 and/or I2S6), read-out: IC50 Range. The gist of the method:
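Heparan sulfate disaccharide biomarkers quantified by LC-MS after heparinase I/II/III digestion and isotopic aniline labelling, using GM01896 MPS II fibroblasts exposed to compound (at or below 30 μM, 4-21 days). Values given as IC50 by curve fitting; cell viability checked with alamar blue or ATP.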

Read-outs that look alike come from different tables or passages of the source.

What is called IC50 is the concentration that gives 50% inhibition. Regarding `Cc1nn(C)c2cc(-c3cc(Nc4ccc5nn(C)cc5c4)nc(N4CCOCC4)n3)ccc12` [[6-(1,3-dimethyl(1H-indazol-6-yl))-2-morpholin-4-ylpyrimidin-4-yl](2-methyl(2H-indazol-5-yl))amine], the IC50 (Homo sapiens, Fibroblast) lay within 1000 to 5000 nM.

As for `Clc1ccc(Nc2cc(-c3ccc4cn(CC5CC5)nc4c3)nc(N3CCOCC3)n2)cc1` [(4-chlorophenyl){6-[2-(cyclopropylmethyl)(2H-indazol-6-yl)]-2-morpholin-4-ylpyrimidin-4-yl}amine], the IC50 (Homo sapiens, Fibroblast) was in the range of 1000 to 5000 nM.

As to `Cn1nc(CCN2CCOCC2)c2ccc(-c3cc(Nc4ccc(-n5nccn5)cc4)nc(N4CCOCC4)n3)cc21` [{6-[1-methyl-3-(2-morpholin-4-ylethyl)(1H-indazol-6-yl)]-2-morpholin-4-ylpyrimidin-4-yl}(4-(1,2,3-triazol-2-yl)phenyl)amine], for the setting “Homo sapiens, Fibroblast”, the IC50 was under 500 nM.

Regarding `Cc1nn(C)c2cc(-c3cc(Nc4ccc(-c5ccn(C)c5)cc4)nc(N4CCOCC4)n3)ccc12` [[6-(1,3-dimethyl(1H-indazol-6-yl))-2-morpholin-4-ylpyrimidin-4-yl][4-(1-methylpyrrol-3-yl)phenyl]amine], the IC50 (Homo sapiens, Fibroblast) lay in the range of 1000 to 5000 nM.

`CNS(=O)(=O)c1ccc(Nc2cc(-c3ccc4cnn(C)c4c3)nc(N3CCOCC3)n2)cc1` [methyl[(4-{[6-(1-methyl(1H-indazol-6-yl))-2-morpholin-4-ylpyrimidin-4-yl]amino}phenyl)sulfonyl]amine]: under “Homo sapiens, Fibroblast”, the IC50 fell in the range of 1000 to 5000 nM.

Turning to `CN(C)c1ccc(Nc2cc(-c3ccc4ncn(C)c4c3)nc(N3CCOCC3)n2)cc1` [dimethyl(4-{[6-(1-methylbenzimidazol-6-yl)-2-morpholin-4-ylpyrimidin-4-yl]amino}phenyl)amine], for the setting “Homo sapiens, Fibroblast”, the half-maximal inhibitory concentration (IC50) is 1000 to 5000 nM.

For `CNC(=O)c1ccc(Nc2cc(-c3ccc4cnn(C)c4c3)nc(N3CCOCC3)n2)cn1` [N-methyl(5-{[6-(1-methyl(1H-indazol-6-yl))-2-morpholin-4-ylpyrimidin-4-yl]amino}(2-pyridyl))carboxamide], the half-inhibitory concentration (IC50) (Homo sapiens, Fibroblast) lay within 500 to 1000 nM.

In the case of `Cn1cnc2ccc(-c3cc(Nc4ccc(F)cc4)nc(N4CCOCC4)n3)cc21` [(4-fluorophenyl)[6-(1-methylbenzimidazol-6-yl)-2-morpholin-4-ylpyrimidin-4-yl]amine], under “Homo sapiens, Fibroblast”, the IC50 lay within 1000 to 5000 nM.

As to `Cc1nn(C)c2cc(-c3cc(Nc4ccc(-c5[nH]ncc5F)cc4)nc(N4CCOCC4)n3)ccc12` [[6-(1,3-dimethyl(1H-indazol-6-yl))-2-morpholin-4-ylpyrimidin-4-yl][4-(4-fluoropyrazol-5-yl)phenyl]amine], the 50% inhibitory concentration (IC50) (Homo sapiens, Fibroblast) fell in the range of 500 to 1000 nM.

For `Cc1nc2ccc(-c3cc(Nc4ccc(Cl)cc4)nc(N4CCOCC4)n3)cc2n1CCN(C)C` [[2-(6-{6-[(4-chlorophenyl)amino]-2-morpholin-4-ylpyrimidin-4-yl}-2-methylbenzimidazolyl)ethyl]dimethylamine], the IC50 was in the range of 1000 to 5000 nM.

For `Cn1nc(CCN2CCOCC2)c2ccc(-c3cc(Nc4ccc(-c5ncco5)cc4)nc(N4CCOCC4)n3)cc21` [{6-[1-methyl-3-(2-morpholin-4-ylethyl)(1H-indazol-6-yl)]-2-morpholin-4-ylpyrimidin-4-yl}(4-(1,3-oxazol-2-yl)phenyl)amine], the IC50 (Homo sapiens, Fibroblast) was in the range of 500 to 1000 nM.

Turning to `Cc1nn(C)c2cc(-c3cc(Nc4ccc(-c5cnn[nH]5)cc4)nc(N4CCOCC4)n3)ccc12` [(4-(1H-1,2,3-triazol-5-yl)phenyl)[6-(1,3-dimethyl(1H-indazol-6-yl))-2-morpholin-4-ylpyrimidin-4-yl]amine], the IC50 (Homo sapiens, Fibroblast) is 500 to 1000 nM.

`Cn1nc(CCN2CCOCC2)c2ccc(-c3nc(N4CCOCC4)nc(Nc4ccc(Cl)cc4)c3F)cc21` [(4-chlorophenyl){5-fluoro-6-[1-methyl-3-(2-morpholin-4-ylethyl)(1H-indazol-6-yl)]-2-morpholin-4-ylpyrimidin-4-yl}amine]: for the setting “Homo sapiens, Fibroblast”, the IC50 was in the range of 1000 to 5000 nM.

As for `Cc1nnc(-c2ccc(Nc3cc(-c4ccc5cnn(C)c5c4)nc(N4CCOCC4)n3)cc2)[nH]1` [[6-(1-methyl(1H-indazol-6-yl))-2-morpholin-4-ylpyrimidin-4-yl][4-(5-methyl(4H-1,2,4-triazol-3-yl))phenyl]amine], the IC50 (Homo sapiens, Fibroblast) is under 500 nM.

With `Cc1nnc(-c2ccc(Nc3cc(-c4ccc5c(C)nn(CCN6CCOCC6)c5c4)nc(N4CCOCC4)n3)cc2)[nH]1` [[4-(5-methyl(4H-1,2,4-triazol-3-yl))phenyl]{6-[3-methyl-1-(2-morpholin-4-ylethyl)(1H-indazol-6-yl)]-2-morpholin-4-ylpyrimidin-4-yl}amine], the IC50 (Homo sapiens, Fibroblast) was under 500 nM.

As for `CNC(=O)c1ccc(Nc2cc(-c3ccc4ncn(CCOC)c4c3)nc(N3CCOCC3)n2)cc1` [[4-({6-[1-(2-methoxyethyl)benzimidazol-6-yl]-2-morpholin-4-ylpyrimidin-4-yl}amino)phenyl]-N-methylcarboxamide], the IC50 (Homo sapiens, Fibroblast) was under 500 nM.

Regarding `CN1CCN(Cc2nn(C)c3cc(-c4cc(Nc5ccc(Cl)cc5)nc(N5CCOCC5)n4)ccc23)CC1` [(4-chlorophenyl)(6-{1-methyl-3-[(4-methylpiperazinyl)methyl](1H-indazol-6-yl)}-2-morpholin-4-ylpyrimidin-4-yl)amine], the IC50 (Homo sapiens, Fibroblast) is 500 to 1000 nM.

Consider `Cn1ncc2ccc(-c3cc(Nc4ccc([S+](C)[O-])cc4)nc(N4CCOCC4)n3)cc21` (stereo not drawn) [1-{[6-(1-methyl(1H-indazol-6-yl))-2-morpholin-4-ylpyrimidin-4-yl]amino}-4-(methylsulfinyl)benzene], for which, for the setting “Homo sapiens, Fibroblast”, the IC50 was 1000 to 5000 nM.

`CC(=O)Nc1ccc(Nc2cc(-c3ccc4ncn(C)c4c3)nc(N3CCOCC3)n2)cc1` [N-(4-{[6-(1-methylbenzimidazol-6-yl)-2-morpholin-4-ylpyrimidin-4-yl]amino}phenyl)acetamide]: the IC50 (Homo sapiens, Fibroblast) lay in the range of 500 to 1000 nM.

On to `CNC(=O)c1ccc(Nc2cc(-c3ccc4cn(CC5CC5)nc4c3)nc(N3CCOCC3)n2)cn1` [[5-({6-[2-(cyclopropylmethyl)(2H-indazol-6-yl)]-2-morpholin-4-ylpyrimidin-4-yl}amino)(2-pyridyl)]-N-methylcarboxamide], for which the IC50 (Homo sapiens, Fibroblast) was in the range of 1000 to 5000 nM.

For the molecule `Cn1ncc2ccc(-c3cc(Nc4ccc(NS(C)(=O)=O)cc4)nc(N4CCOCC4)n3)cc21` [(4-{[6-(1-methyl(1H-indazol-6-yl))-2-morpholin-4-ylpyrimidin-4-yl]amino}phenyl)(methylsulfonyl)amine], the IC50 (Homo sapiens, Fibroblast) lay within 500 to 1000 nM.

As to `CNC(=O)c1ccc(Nc2cc(-c3ccc4c(cnn4C)c3)nc(N3CCOCC3)n2)cc1` [N-methyl(4-{[6-(1-methyl(1H-indazol-5-yl))-2-morpholin-4-ylpyrimidin-4-yl]amino}phenyl)carboxamide], the IC50 (Homo sapiens, Fibroblast) is 500 to 1000 nM.

For `Cc1nn(C)c2cc(-c3cc(Nc4ccc5nn(C)nc5c4)nc(N4CCOCC4)n3)ccc12` [[6-(1,3-dimethyl(1H-indazol-6-yl))-2-morpholin-4-ylpyrimidin-4-yl](2-methyl(2-hydrobenzotriazol-5-yl))amine], the IC50 lay within 1000 to 5000 nM.

Turning to `Cn1nc(CCCO)c2ccc(-c3cc(Nc4ccc(Cl)cc4)nc(N4CCOCC4)n3)cc21` [3-(6-{6-[(4-chlorophenyl)amino]-2-morpholin-4-ylpyrimidin-4-yl}-1-methyl-1H-indazol-3-yl)propan-1-ol], under “Homo sapiens, Fibroblast”, the IC50 fell in the range of 500 to 1000 nM.

For the molecule `Cn1nc(CCN2CCOCC2)c2ccc(-c3cc(Nc4ccc(Cl)cc4)nc(N4CCOCC4)n3)cc21` [(4-chlorophenyl){6-[1-methyl-3-(2-morpholin-4-ylethyl)(1H-indazol-6-yl)]-2-morpholin-4-ylpyrimidin-4-yl}amine], the IC50 (Homo sapiens, Fibroblast) fell in the range of 500 to 1000 nM.

With `CNC(=O)c1ccc(Nc2cc(-c3ccc4ncn(CCN5CCCC5)c4c3)nc(N3CCOCC3)n2)cc1` [N-methyl[4-({2-morpholin-4-yl-6-[1-(2-pyrrolidinylethyl)benzimidazol-6-yl]pyrimidin-4-yl}amino)phenyl]carboxamide], where the note is “Homo sapiens, Fibroblast”, the IC50 was in the range of 1000 to 5000 nM.

Regarding `Cn1nc(NCCN2CCCC2)c2ccc(-c3cc(Nc4ccc(Cl)cc4)nc(N4CCOCC4)n3)cc21` [(4-chlorophenyl)(6-{1-methyl-3-[(2-pyrrolidinylethyl)amino](1H-indazol-6-yl)}-2-morpholin-4-ylpyrimidin-4-yl)amine], under “Homo sapiens, Fibroblast”, the IC50 was 500 to 1000 nM.

As to `CNC(=O)c1ccc(Nc2cc(-c3ccc4nc(C)n(C5CCC5)c4c3)nc(N3CCOCC3)n2)cc1` [(4-{[6-(1-cyclobutyl-2-methylbenzimidazol-6-yl)-2-morpholin-4-ylpyrimidin-4-yl]amino}phenyl)-N-methylcarboxamide], the half-inhibitory concentration (IC50) (Homo sapiens, Fibroblast) is under 500 nM.

As for `Cn1cnc2ccc(-c3cc(Nc4ccc(NS(C)(=O)=O)cc4)nc(N4CCOCC4)n3)cc21` [(4-{[6-(1-methylbenzimidazol-6-yl)-2-morpholin-4-ylpyrimidin-4-yl]amino}phenyl)(methylsulfonyl)amine], where the note is “Homo sapiens, Fibroblast”, the IC50 was in the range of 1000 to 5000 nM.

For the molecule `Cn1ccc2ccc(Nc3cc(-c4ccc5c(CCCN)nn(C)c5c4)nc(N4CCOCC4)n3)cc21` [{6-[3-(3-aminopropyl)-1-methyl(1H-indazol-6-yl)]-2-morpholin-4-ylpyrimidin-4-yl}(1-methylindol-6-yl)amine], the IC50 (Homo sapiens, Fibroblast) was under 500 nM.

As for `Clc1ccc(Nc2cc(-c3ccc4cnn(CCN5CCCC5)c4c3)nc(N3CCOCC3)n2)cc1` [(4-chlorophenyl){2-morpholin-4-yl-6-[1-(2-pyrrolidinylethyl)(1H-indazol-6-yl)]pyrimidin-4-yl}amine], the IC50 (Homo sapiens, Fibroblast) was in the range of 1000 to 5000 nM.

For `CNC(=O)c1ccc(Nc2cc(-c3ccc4ncn(CCCN(C)C)c4c3)nc(N3CCOCC3)n2)cc1` [{4-[(6-{1-[3-(dimethylamino)propyl]benzimidazol-6-yl}-2-morpholin-4-ylpyrimidin-4-yl)amino]phenyl}-N-methylcarboxamide], under “Homo sapiens, Fibroblast”, the IC50 was 1000 to 5000 nM.

`Cn1cnc2ccc(-c3cc(Nc4ccc(C(=O)NC5CC5)nc4)nc(N4CCOCC4)n3)cc21` [N-cyclopropyl(5-{[6-(1-methylbenzimidazol-6-yl)-2-morpholin-4-ylpyrimidin-4-yl]amino}(2-pyridyl))carboxamide]: the IC50 (Homo sapiens, Fibroblast) lay in the range of 500 to 1000 nM.

The record behind these values is patent publication US20190151312A1, “HEPARAN SULFATE BIOSYNTHESIS INHIBITORS FOR THE TREATMENT OF DISEASES” (BioMarin Pharmaceutical Inc., priority 2014, published 2019).
